Source: ChEMBL document CHEMBL1201862, “PubChem BioAssay data set” (2004)
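Tested at 5 concentrations; 48 h exposure; 96-well plates; endpoints linearly interpolated, else capped at highest concentration. The concentration for 50% growth inhibition is given as GI50.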 Active and inactive are the calls of the source. Cut-off read from the data, not from the text of the source: active = GI50 up to about 1.1 µM and inactive = higher.

Key:
Test in all cases: growth of human tumour cells (NCI), 48 h
[1] = system: A549
[2] = system: ACHN
[3] = system: COLO 205
[4] = system: HCT-116
[5] = system: HOP-92
[6] = system: Hs-578T
[7] = system: LOX IMVI
[8] = system: MDA-MB-231
[9] = system: MDA-MB-435
[10] = system: NCI-H23
[11] = system: NCI-H522
[12] = system: OVCAR-4
[13] = system: OVCAR-5
[14] = system: OVCAR-8
[15] = system: SK-MEL-5
[16] = system: SN12C
[17] = system: SW-620
[18] = system: U-251
[19] = system: UO-31
[20] = system: HCC 2998

Measured: GI50

CN(C)CCCNc1c2ccccc2[n+]([O-])c2ccccc12
inactive: [1] 44.6 µM | [2] 49.1 µM | [3] 13.3 µM | [4] 34 µM | [5] 36.5 µM | [6] 22.6 µM | [7] 31.2 µM | [8] 63.4 µM | [9] 50.8 µM | [10] 45.7 µM | [11] 28.2 µM | [12] 27.1 µM | [13] 38.8 µM | [14] 41.9 µM | [15] 40.1 µM | [16] 46.1 µM | [17] 39.9 µM | [18] 62.8 µM | [19] 34.5 µM

O=C1c2ccccc2C(=O)N1CC1(C(=O)O)NCCS1(=O)=O (stereo unspecified)
inactive: [1] > 100 µM | [2] > 100 µM | [3] > 100 µM | [4] > 100 µM | [5] > 100 µM | [6] > 100 µM | [7] > 100 µM | [8] > 100 µM | [9] > 100 µM | [10] > 100 µM | [11] > 100 µM | [12] > 100 µM | [13] > 100 µM | [14] > 100 µM | [15] > 100 µM | [16] > 100 µM | [17] > 100 µM | [18] > 100 µM | [19] > 100 µM

COc1ccc([C@@]23CCC(=O)C[C@@H]2N(C)CC3)cc1OC
inactive: [1] > 100 µM | [2] > 100 µM | [3] > 100 µM | [20] > 100 µM | [5] > 100 µM | [6] > 100 µM | [7] > 100 µM | [8] > 100 µM | [9] > 100 µM | [10] > 100 µM | [11] > 100 µM | [12] > 100 µM | [13] > 100 µM | [14] > 100 µM | [15] > 100 µM | [17] > 100 µM | [18] > 100 µM | [19] > 100 µM

O=C(NC1=C(Cl)C(=O)c2ccccc2C1=O)c1ccccc1
inactive: [1] 52.5 µM | [2] 20.8 µM | [3] 15.5 µM | [20] 46.5 µM | [4] 17.3 µM | [5] 24.9 µM | [6] 69 µM | [8] 32.9 µM | [9] 18.9 µM | [10] 23.8 µM | [11] 23.9 µM | [12] 45.1 µM | [13] 47.1 µM | [14] 43.2 µM | [15] 27.5 µM | [16] 38.1 µM | [17] 17.3 µM | [18] 27.8 µM

O=C(Nc1ccc2[nH]c(C(=O)N3CC(CCl)c4ccc([N+](=O)[O-])cc43)cc2c1)c1cc2ccccc2o1 (stereo unspecified)
inactive: [1] 556 µM | [3] > 1100 µM | [20] > 1100 µM | [4] > 1100 µM | [5] > 1100 µM | [6] > 1100 µM | [7] > 1100 µM | [8] > 1100 µM | [9] > 1100 µM | [10] > 1100 µM | [11] 258 µM | [12] > 1100 µM | [13] 893 µM | [14] > 1100 µM | [15] > 1100 µM | [16] > 1100 µM | [17] > 1100 µM | [18] > 1100 µM | [19] > 1100 µM

CN1CCN(C2=C(Cl)C3(OCCS3)C(F)(F)C2(F)F)CC1 (stereo unspecified)
inactive: [1] 95.9 µM | [2] > 100 µM | [3] 43.4 µM | [4] > 100 µM | [5] 66.5 µM | [6] > 100 µM | [7] 56 µM | [8] 82 µM | [9] > 100 µM | [10] 27.1 µM | [11] > 100 µM | [12] > 100 µM | [13] > 100 µM | [14] > 100 µM | [15] 16.6 µM | [16] > 100 µM | [17] > 100 µM | [18] 39.8 µM | [19] 55 µM

Cc1ccc2nc3c(=O)[nH]c(=O)nc-3n(C)c2c1C
inactive: [1] > 100 µM | [2] > 100 µM | [3] > 100 µM | [20] > 100 µM | [4] > 100 µM | [6] 12.1 µM | [7] > 100 µM | [8] > 100 µM | [9] > 100 µM | [10] > 100 µM | [11] > 100 µM | [12] > 100 µM | [13] > 100 µM | [14] > 100 µM | [15] > 100 µM | [16] > 100 µM | [17] > 100 µM | [18] > 100 µM | [19] > 100 µM
